Assay results as given in BindingDB's records for patent US12371430 (Merck Patent, 2025).
pIC50: −log10 of the molar value.

Molecular target: ATR-interacting protein/Serine/threonine-protein kinase ATR (Homo sapiens, UniProt Q13535)
Assay: ATR/ATRIP Kinase Assay
Protocol: The ATR/ATRIP enzymatic assay is performed as a TR-FRET-(HTRF™, Cisbio Bioassays) based 384-well assay. In a first step, purified human recombinant ATR/ATRIP (human ATR, full length, GenBank ID: NM_001184.3, and human ATRIP, full length, GenBank ID AF451323.1, co-expressed in a mammalian cell line) is incubated in assay buffer for 15 minutes at 22° C. with test compound at different concentrations or without test compound (as a negative control). The assay buffer contains 25 mM HEPES pH 8.0, 10 mM Mg(CH3COO)2, 1 mM MnCl2, 0.1% BSA, 0.01% Brij 35, and 5 mM dithiothreitol (DTT). An Echo 555 (Labcyte) is used for dispensing of compound solutions. […] The generation of phosphorylated p53 as a result of the ATR mediated reaction in the presence of ATP is detected by using specific antibodies [labeled with the fluorophores europium (Eu) as donor and d2 as acceptor (Cisbio Bioassays)] enabling FRET. […] Following signal development for 2 h the plates are analyzed in an EnVision (PerkinElmer) microplate reader using the TRF mode with laser excitation. Upon excitation of the donor europium at 340 nm the emitted fluorescence light of the acceptor d2 at 665 nm as well as from the donor Eu at 615 nm are measured. The amount of phosphorylated p53 is directly proportional to the ratio of the amounts of emitted light i.e. the ratio of the relative fluorescence units (rfu) at 665 nm and 615 nm. […]

Chain of ATR-interacting protein/Serine/threonine-protein kinase ATR (Q8WXE1 whole entry): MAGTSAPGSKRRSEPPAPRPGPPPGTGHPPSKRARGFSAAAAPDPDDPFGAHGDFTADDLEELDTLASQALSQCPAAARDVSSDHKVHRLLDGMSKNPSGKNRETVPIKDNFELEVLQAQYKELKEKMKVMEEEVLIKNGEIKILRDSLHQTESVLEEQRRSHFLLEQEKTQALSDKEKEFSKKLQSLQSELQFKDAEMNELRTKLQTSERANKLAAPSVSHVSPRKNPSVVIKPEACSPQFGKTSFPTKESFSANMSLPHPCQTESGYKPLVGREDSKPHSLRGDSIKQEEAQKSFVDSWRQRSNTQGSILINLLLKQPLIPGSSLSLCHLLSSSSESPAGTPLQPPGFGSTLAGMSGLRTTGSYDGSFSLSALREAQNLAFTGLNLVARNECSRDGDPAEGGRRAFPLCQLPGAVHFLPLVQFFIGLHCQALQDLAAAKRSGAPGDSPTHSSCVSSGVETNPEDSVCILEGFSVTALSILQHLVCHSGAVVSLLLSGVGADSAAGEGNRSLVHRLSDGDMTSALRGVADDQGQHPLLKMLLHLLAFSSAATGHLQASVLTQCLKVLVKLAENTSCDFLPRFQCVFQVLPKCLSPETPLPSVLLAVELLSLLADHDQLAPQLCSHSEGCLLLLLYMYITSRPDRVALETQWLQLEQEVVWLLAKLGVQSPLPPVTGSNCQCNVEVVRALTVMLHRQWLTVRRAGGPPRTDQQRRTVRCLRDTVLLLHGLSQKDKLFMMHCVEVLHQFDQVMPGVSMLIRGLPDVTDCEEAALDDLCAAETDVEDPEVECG
Chain of ATR-interacting protein/Serine/threonine-protein kinase ATR (Q13535 whole entry): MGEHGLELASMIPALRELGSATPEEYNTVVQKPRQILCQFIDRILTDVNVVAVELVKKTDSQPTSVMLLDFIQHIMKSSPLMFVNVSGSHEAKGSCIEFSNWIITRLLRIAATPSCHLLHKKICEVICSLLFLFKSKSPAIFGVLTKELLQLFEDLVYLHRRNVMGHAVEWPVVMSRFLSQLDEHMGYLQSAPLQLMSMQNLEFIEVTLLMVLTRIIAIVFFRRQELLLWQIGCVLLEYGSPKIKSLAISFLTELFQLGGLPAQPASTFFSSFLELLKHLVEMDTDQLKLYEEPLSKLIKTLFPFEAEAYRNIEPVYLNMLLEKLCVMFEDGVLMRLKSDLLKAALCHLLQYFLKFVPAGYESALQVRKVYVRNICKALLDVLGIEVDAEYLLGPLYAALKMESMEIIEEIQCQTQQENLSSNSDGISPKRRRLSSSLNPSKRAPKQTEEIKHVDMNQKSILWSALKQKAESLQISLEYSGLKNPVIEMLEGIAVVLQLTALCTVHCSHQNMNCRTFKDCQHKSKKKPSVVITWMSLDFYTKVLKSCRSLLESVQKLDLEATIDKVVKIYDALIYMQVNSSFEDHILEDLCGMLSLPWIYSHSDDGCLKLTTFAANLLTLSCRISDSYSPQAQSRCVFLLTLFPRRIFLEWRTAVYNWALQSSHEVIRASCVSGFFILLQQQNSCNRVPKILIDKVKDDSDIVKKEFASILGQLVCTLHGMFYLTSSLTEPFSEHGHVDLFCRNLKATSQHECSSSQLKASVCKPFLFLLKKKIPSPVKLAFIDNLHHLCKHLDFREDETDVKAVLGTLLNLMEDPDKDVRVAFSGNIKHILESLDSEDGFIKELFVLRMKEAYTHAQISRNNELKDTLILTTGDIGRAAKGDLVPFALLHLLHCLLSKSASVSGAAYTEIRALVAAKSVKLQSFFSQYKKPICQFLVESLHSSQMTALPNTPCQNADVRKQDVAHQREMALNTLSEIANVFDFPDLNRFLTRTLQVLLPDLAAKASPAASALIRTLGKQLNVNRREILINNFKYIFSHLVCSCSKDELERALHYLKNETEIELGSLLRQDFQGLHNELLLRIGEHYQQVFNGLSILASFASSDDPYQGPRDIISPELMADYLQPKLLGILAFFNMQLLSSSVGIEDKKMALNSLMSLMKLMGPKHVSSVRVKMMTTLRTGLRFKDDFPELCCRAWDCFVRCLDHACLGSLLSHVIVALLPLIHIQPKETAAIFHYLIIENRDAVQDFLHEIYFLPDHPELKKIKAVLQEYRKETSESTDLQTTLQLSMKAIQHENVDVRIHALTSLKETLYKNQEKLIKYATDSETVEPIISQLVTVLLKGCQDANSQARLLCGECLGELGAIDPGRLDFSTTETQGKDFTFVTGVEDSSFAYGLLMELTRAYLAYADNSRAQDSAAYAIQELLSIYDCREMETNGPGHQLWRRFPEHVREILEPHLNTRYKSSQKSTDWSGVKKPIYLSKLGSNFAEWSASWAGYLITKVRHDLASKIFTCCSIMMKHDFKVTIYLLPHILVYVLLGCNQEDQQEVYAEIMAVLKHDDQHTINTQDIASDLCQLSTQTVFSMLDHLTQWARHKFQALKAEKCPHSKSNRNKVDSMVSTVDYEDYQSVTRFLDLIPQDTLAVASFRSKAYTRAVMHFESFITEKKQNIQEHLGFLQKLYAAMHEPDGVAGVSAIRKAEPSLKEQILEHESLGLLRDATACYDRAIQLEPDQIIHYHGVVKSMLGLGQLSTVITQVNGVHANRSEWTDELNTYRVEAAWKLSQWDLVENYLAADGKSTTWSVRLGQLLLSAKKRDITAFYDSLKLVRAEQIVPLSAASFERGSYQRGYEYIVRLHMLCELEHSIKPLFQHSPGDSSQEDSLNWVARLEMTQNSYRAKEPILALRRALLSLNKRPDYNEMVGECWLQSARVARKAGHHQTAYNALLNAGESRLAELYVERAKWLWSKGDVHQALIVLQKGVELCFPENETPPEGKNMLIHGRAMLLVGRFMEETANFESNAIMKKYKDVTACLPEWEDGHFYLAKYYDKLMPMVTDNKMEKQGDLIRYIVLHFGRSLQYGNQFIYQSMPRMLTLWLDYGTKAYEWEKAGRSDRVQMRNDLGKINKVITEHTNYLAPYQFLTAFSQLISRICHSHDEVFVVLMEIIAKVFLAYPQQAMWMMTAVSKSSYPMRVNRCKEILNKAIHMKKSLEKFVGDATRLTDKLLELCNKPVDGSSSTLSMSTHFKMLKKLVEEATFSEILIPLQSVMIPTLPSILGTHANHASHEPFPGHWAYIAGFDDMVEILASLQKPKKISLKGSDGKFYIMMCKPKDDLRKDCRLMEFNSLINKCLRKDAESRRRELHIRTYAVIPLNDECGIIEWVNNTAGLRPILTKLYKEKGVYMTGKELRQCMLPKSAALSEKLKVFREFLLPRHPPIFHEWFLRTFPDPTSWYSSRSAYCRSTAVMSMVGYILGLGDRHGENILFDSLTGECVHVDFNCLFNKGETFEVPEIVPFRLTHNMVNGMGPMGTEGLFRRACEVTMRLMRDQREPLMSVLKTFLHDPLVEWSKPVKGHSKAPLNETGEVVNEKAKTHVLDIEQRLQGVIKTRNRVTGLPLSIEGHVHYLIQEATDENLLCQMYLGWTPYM

- pIC50: 9.10
SMILES: C[C@@H]1COCCN1c1cc(C2CCS(=O)(=O)CC2)c2c(n1)c(-c1ccn[nH]1)nn2C [US12371430, Compound 82]
